The source made the active and inactive calls. The rule behind the calls is not given here.
Experiments:
[1] = Drug level in CD-1 mouse hepatocytes treated with 1-(6-(4-fluorobenzyl)-3,3-dimethyl-2,3-dihydro-1H-pyrrolo[3,2-b]pyridin-1-yl)-2-((2R,5R)-5-methyl-2-(((R)-3-methylmorpholino)methyl)piperazin-1-yl)ethanone at 10 uM up to 90 mins by LC-MS analysis; assay type: ADME, cell-based, Hepatocyte
[2] = Drug level in human hepatocytes treated with 1-(6-(4-fluorobenzyl)-3,3-dimethyl-2,3-dihydro-1H-pyrrolo[3,2-b]pyridin-1-yl)-2-((2R,5R)-5-methyl-2-(((R)-3-methylmorpholino)methyl)piperazin-1-yl)ethanone at 10 uM up to 90 mins by LC-MS analysis; assay type: ADME, cell-based, Hepatocyte
[3] = Drug level in cynomolgus monkey hepatocytes treated with 1-(6-(4-fluorobenzyl)-3,3-dimethyl-2,3-dihydro-1H-pyrrolo[3,2-b]pyridin-1-yl)-2-((2R,5R)-5-methyl-2-(((R)-3-methylmorpholino)methyl)piperazin-1-yl)ethanone at 10 uM up to 90 mins by LC-MS analysis; assay type: ADME, cell-based, Macaca fascicularis, Hepatocyte
MDA-MB-231 [4] = assay: Antitumor activity against human MDA-MB-231 cells xenografted in Balb/c mouse assessed as tumor growth inhibition at 16 mg/kg, po qd after 1 to 22 days; assay type: functional, organism-based
MDA-MB-231 [5] = assay: Antitumor activity against human MDA-MB-231 cells xenografted in Balb/c mouse assessed as tumor growth inhibition at 20 mg/kg, po qd after 1 to 22 days; assay type: functional, organism-based
Mus musculus [6] = assay: In vivo inhibition of XIAP interaction with SMAC in human MDA-MB-231 cells xenografted in Balb/c SCID mouse at 20 mg/kg, po administered as single dose measured up to 72 hrs by MSD plate-based assay; assay type: functional, organism-based
Mus musculus [7] = assay: Reduction in cIAP1 level in tumor of Balb/c SCID mouse xenografted with human MDA-MB-231 cells at 20 mg/kg, po administered as single dose measured up to 72 hrs by MSD plate-based assay; assay type: functional, organism-based
[8] = Chromatographic hydrophobicity index, log D of the compound at pH 7.4 by HPLC method; assay type: physicochemical; conditions: buffer
MDA-MB-231 [9] = assay: cells; conditions: Homo sapiens, MDA-MB-231, 72 h
hERG (KCNH2) = hERG (KCNH2) (Homo sapiens, UniProt Q12809); assay: in vitro; conditions: CHO-K1 cells expressing human ERG
Chain of hERG (KCNH2) (Q12809 whole entry): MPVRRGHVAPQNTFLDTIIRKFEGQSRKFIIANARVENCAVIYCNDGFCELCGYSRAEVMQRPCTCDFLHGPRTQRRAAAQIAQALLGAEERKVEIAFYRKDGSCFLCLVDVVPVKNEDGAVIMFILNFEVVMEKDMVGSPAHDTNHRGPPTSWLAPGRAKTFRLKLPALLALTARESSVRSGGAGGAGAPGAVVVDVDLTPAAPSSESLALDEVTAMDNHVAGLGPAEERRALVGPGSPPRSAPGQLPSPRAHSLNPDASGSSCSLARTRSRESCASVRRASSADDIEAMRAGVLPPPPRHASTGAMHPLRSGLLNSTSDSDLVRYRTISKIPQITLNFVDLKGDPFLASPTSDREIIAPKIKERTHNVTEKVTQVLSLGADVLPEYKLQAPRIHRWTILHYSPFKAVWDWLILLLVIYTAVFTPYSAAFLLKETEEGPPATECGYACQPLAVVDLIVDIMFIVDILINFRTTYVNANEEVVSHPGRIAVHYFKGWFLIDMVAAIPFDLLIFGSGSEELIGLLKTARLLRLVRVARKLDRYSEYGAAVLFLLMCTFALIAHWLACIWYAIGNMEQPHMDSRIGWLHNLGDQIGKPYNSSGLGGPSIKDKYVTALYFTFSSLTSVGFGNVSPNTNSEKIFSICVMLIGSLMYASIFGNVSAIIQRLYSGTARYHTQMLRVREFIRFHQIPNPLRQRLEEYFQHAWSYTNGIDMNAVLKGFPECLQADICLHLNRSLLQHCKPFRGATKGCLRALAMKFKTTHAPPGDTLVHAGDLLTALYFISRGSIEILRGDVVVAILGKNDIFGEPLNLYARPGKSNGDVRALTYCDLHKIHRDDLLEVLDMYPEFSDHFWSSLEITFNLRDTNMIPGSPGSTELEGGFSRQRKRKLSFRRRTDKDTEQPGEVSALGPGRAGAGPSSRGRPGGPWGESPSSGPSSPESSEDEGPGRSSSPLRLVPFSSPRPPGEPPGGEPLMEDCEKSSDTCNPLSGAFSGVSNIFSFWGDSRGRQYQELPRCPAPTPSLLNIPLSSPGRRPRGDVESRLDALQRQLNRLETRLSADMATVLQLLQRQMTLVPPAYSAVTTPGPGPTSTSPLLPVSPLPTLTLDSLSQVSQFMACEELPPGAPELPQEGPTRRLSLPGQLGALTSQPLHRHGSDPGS

CYP3A4 = CYP3A4 (Homo sapiens, UniProt P08684); assay: in vitro; conditions: human CYP3A4 supersomes
Chain of CYP3A4 (P08684 whole entry): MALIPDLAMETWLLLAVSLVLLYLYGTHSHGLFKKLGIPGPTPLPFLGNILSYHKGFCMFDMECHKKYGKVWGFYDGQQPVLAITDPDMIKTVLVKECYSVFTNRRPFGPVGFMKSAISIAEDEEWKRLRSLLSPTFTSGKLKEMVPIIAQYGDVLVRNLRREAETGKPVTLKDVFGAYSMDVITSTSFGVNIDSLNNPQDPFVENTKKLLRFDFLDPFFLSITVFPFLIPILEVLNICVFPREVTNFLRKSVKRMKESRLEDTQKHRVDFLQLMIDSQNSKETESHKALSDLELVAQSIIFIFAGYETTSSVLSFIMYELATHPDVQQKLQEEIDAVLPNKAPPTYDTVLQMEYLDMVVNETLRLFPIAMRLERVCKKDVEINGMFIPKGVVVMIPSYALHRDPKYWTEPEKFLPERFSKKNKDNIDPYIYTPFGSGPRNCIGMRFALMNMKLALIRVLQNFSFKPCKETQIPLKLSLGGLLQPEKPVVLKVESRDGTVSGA

[10] = Drug level in tumor of human MDA-MB-231 cells xenografted Balb/c SCID mouse at 20 mg/kg, po administered as single dose measured up to 72 hrs by UPLC analysis; assay type: ADME, organism-based, Neoplasm; conditions: in vivo

| Compound | chromatographic logD [8] | IC50 (MDA-MB-231 [9]) | inhibition at 10 min, 30 µM (hERG (KCNH2)) | half-life at 40 min, 1 µM (CYP3A4) | other results |
| --- | --- | --- | --- | --- | --- |
| C[C@@H]1COCCN1C[C@@H](CN)NCC(=O)N1CC(C)(C)c2ncc(Cc3ccc(F)cc3)cc21 |  |  |  |  | Drug uptake [1]: Active; Drug uptake [2]: Active; Drug uptake [3]: Active |
| C[C@@H]1CN(CC(=O)N2CC(C)(C)c3ncc(Cc4ccc(F)cc4)cc32)[C@@H](CN)CN1 |  |  |  |  | Drug uptake [1]: Active; Drug uptake [2]: Active; Drug uptake [3]: Active |
| C[C@@H]1CN(CC(=O)N2CC(C)(C)c3nc(CO)c(Cc4ccc(F)cc4)cc32)[C@@H](CN2CCOC[C@H]2C)CN1 |  |  |  |  | TGI (MDA-MB-231 [4]): Active; TGI (MDA-MB-231 [5]): Active; Activity (Mus musculus [6]): Active; Activity (Mus musculus [7]): Active |
| C[C@@H]1CN(CC(=O)N2CC(C)(C)c3nnc(Cc4ccc(F)cc4F)cc32)[C@@H](CN2Cc3ccc(C#N)cc3C2=O)CN1 | 2.9 | 14 nM | 18% | 34 min |  |
| C[C@@H]1CN(CC(=O)N2CC(C)(C)c3nc(CO)c(Cc4ccc(F)cc4)cc32)[C@@H](CN2CCOC[C@H]2C)CN1.Cl.Cl |  |  |  |  | Drug uptake [10]: Active |
| C[C@@H]1CN(CC(=O)N2CC(C)(C)c3nnc(Cc4ccc(F)cc4F)cc32)[C@@H](CN2Cc3cc(F)ccc3C2=O)CN1 | 2.6 | 1.9 nM | 25% | 37 min |  |
| CN[C@@H](C)C(=O)N[C@H](C(=O)N1CCC[C@H]1c1nc(C(=O)c2ccc(F)cc2)cs1)C1CCCCC1 [LCL-161] |  | 7.8 nM |  |  |  |
| C[C@@H]1CN(CC(=O)N2CC(C)(C)c3nnc(Cc4ccc(F)cc4)cc32)[C@@H](CN2Cc3ccccc3C2=O)CN1 |  | 16 nM | 12% | 38 min |  |
| C[C@@H]1CN(CC(=O)N2CC(C)(C)c3cc(=O)n(Cc4ccc(F)cc4)cc32)[C@@H](CN2[C@H](C)COC[C@H]2C)CN1 | 2.4 |  |  |  |  |
| C[C@@H]1CN(CC(=O)N2CC(C)(C)c3c2cc(Cc2ccc(F)cc2)c(=O)n3C)[C@@H](CN2[C@H](C)COC[C@H]2C)CN1 | 3.2 |  |  |  |  |

Source: ChEMBL document CHEMBL4152349, “A Fragment-Derived Clinical Candidate for Antagonism of X-Linked and Cellular Inhibitor of Apoptosis Proteins: 1-(6-[(4-Fluorophenyl)methyl]-5-(hydroxymethyl)-3,3-dimethyl-1 H,2 H,3 H-pyrrolo[3,2- b]pyridin-1-yl)-2-[(2 R,5 …” (J Med Chem, 2018)
